Measured values: publication PMC3573112, “Compatibility in the Ustilago maydis–Maize Interaction Requires Inhibition of Host Cysteine Proteases by the Fungal Effector Pit2” (PLoS Pathogens, 2013)
Where a SMILES comes first, the peptide text is derived from it. The star is where a group is joined. AMC = Cc1cc(=O)oc2cc(N*)ccc12; Cbz = O=C(OCc1ccccc1)*

Assays:
[1] = target: CP2 (corn cysteine protease 2) without signal peptide and prodomain, Gal4 activation domain fusion (pGADT7-CP2) (maize) (UniProt Q10717)
CP2 = target: T1, CP2 (Zea mays, UniProt Q43705); test: fluorimetric protease assay (AMC release), apoplastic fluid; format: biochemical; details: 2 µM substrate; pH 6.0, room temperature; DTT
T1 construct: gene see1; transiently expressed in Nicotiana benthamiana (pGreenII 0029); apoplastic fluid, not purified
T1 sequence (Q43705 143-360): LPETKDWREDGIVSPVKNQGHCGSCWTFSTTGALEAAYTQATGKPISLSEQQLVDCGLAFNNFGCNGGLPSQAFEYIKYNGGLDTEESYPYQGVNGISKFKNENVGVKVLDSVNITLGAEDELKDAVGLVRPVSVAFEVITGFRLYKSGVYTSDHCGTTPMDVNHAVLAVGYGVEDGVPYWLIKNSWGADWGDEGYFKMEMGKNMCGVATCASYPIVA

CathepsinBIII (CatB) = target: T2, CathepsinBIII (CatB) (Zea mays, UniProt B6TLR9); test: as above; format: biochemical; details: 2 µM substrate; pH 6.0, room temperature; DTT
T2 construct: transiently expressed in Nicotiana benthamiana (pGreenII 0029); apoplastic fluid, not purified
T2 sequence (B6TLR9 93-347): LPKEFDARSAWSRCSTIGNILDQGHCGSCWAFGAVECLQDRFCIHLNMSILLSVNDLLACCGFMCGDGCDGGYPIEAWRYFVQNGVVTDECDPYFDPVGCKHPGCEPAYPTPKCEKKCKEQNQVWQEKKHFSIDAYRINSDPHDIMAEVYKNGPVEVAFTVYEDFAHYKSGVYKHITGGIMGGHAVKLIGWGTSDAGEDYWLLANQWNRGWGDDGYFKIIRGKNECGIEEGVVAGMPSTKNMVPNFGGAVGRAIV

XCP2 = target: T3, XCP2 (Zea mays, UniProt B6TIC7); test: as above; format: biochemical; details: 2 µM substrate; pH 6.0, room temperature; DTT
T3 construct: transiently expressed in Nicotiana benthamiana (pGreenII 0029); apoplastic fluid, not purified

[2] = target: T4, CP2 (corn cysteine protease 2) (Zea mays, UniProt Q43705); test: fluorimetric protease assay (AMC release, […] nm); format: biochemical; details: 1 µM substrate; pH 6.0
T4 construct: gene see1
T4 sequence (Q43705 143-360 limits assumed): T1 sequence (Q43705 143-360)

CP1A = target: T5, CP1A (Zea mays, UniProt B6T669); test: fluorimetric protease assay (AMC release), apoplastic fluid; format: biochemical; details: 2 µM substrate; pH 6.0, room temperature; DTT
T5 construct: transiently expressed in Nicotiana benthamiana (pGreenII 0029); apoplastic fluid, not purified

[3] = target: T4, CP2 (corn cysteine protease 2); test: fluorimetric protease assay with Z-Phe-Arg-AMC; format: biochemical; details: 10 min preincubation; 1 µM Z-Phe-Arg-AMC; pH 6.0; covalent

T5 sequence (B6T669 130-463): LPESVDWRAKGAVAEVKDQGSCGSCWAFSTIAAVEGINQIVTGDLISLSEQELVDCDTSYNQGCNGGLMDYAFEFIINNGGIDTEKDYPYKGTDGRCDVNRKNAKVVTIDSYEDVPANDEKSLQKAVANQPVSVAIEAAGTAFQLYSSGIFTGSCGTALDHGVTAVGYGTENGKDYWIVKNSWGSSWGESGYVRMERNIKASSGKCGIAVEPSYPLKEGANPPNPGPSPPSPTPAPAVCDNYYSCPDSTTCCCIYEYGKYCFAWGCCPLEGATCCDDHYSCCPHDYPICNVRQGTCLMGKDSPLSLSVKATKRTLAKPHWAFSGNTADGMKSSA
T3 sequence (B6TIC7 158-377): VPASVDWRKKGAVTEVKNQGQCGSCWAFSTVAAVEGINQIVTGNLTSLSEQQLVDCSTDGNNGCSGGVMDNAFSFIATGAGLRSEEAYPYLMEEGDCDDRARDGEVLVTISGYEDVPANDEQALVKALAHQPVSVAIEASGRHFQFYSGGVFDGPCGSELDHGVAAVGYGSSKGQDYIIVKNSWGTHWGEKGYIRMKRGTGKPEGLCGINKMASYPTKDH

GST-Pit2 (Pit2 without signal peptide with N-terminal GST-tag, pRSET-GST-PP-Pit2) (natural protein)
inhibition of the activity on Z-Phe-Arg-AMC of recombinant His-tagged CP2 (E. coli, refolded, activated by pH shift and pepsin) by 10 µM recombinant Pit2 (GST tag removed) [1]: 85 % inhibition

Cc1cc(=O)oc2cc(NC(=O)[C@H](CCCNC(=N)N)NC(=O)[C@H](Cc3ccccc3)NC(=O)OCc3ccccc3)ccc12 [Z-Phe-Arg-7-amido-4-methylcoumarin] (Cbz-Phe-Arg-{AMC})
fluorimetric protease assay (AMC release), apoplastic fluid (CP2): Protease activity was determined using substrate Z-Phe-Arg-AMC | fluorimetric protease assay (AMC release), apoplastic fluid (CathepsinBIII (CatB)): Protease activity was determined using substrate Z-Phe-Arg-AMC | fluorimetric protease assay (AMC release), apoplastic fluid (XCP2): Protease activity was determined using substrate Z-Phe-Arg-AMC | fluorimetric protease assay (AMC release, 460 nm) [2]: Protease-activity was determined using the fluorescent substrate Z-Phe-Arg-AMC | fluorimetric protease assay (AMC release), apoplastic fluid (CP1A): Protease activity was determined using substrate Z-Phe-Arg-AMC

CC(C)C[C@H](NC(=O)[C@H]1O[C@@H]1C(=O)O)C(=O)NCCCCN=C(N)N [E-64]
inhibition at 2.5 μM [3]: inhibited by addition of the specific small molecule cysteine protease inhibitor E-64
